Test systems include HT29 colon; LOX IMVI melanoma; MOLT-4 leukemia; NCI-H226 lung; NCI-H23 lung; OVCAR-5 ovarian; RXF 393 renal; SK-MEL-28 melanoma; HS 578T breast; MDA-MB-435.
Holding throughout (assay): NCI-60 cell line screen, 48 h

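Growth conditions: 96-well plates. Treatment: test compound, 48 hours, 5 concentrations. Analysis: linear interpolation between bracketing concentrations; unreached endpoints set to highest concentration. GI50: concentration for 50% inhibition of growth. TGI denotes the concentration required for complete inhibition of growth.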 Some results are limits rather than exact numbers.

With `O=C(O)CN(c1ccc(F)cc1)S(=O)(=O)c1ccccc1`, the TGI with HT29 colon, with LOX IMVI melanoma, with MOLT-4 leukemia, in the assay on NCI-H226 lung, with NCI-H23 lung and in the assay with OVCAR-5 ovarian was above 100 µM throughout. In addition, the TGI with RXF 393 renal and with SK-MEL-28 melanoma was above 100 µM in each case.

For `CCOC(=O)CN(c1ccccc1)c1nc(=[N+](C)C)ss1`, the TGI is 28.2 µM in the assay on MOLT-4 leukemia, 75.4 µM in the assay on NCI-H226 lung, above 100 µM in the assay on RXF 393 renal and above 100 µM in the assay on SK-MEL-28 melanoma.

Regarding `O=C1c2cc(F)ccc2-c2c1c1ccc([N+](=O)[O-])cc1c(=O)n2CCCBr`, the GI50 was above 100 µM with HS 578T breast; 19.6 µM in the assay with HT29 colon; 7.62 µM in the assay on LOX IMVI melanoma; 37.5 µM in the assay with MDA-MB-435; 2.8 µM with MOLT-4 leukemia; 22.6 µM with NCI-H226 lung. Further, the GI50 is 18.4 µM with NCI-H23 lung, 65.5 µM in the assay with OVCAR-5 ovarian and 69.6 µM with SK-MEL-28 melanoma. Further, the TGI in the assay on HS 578T breast was above 100 µM; in the assay on HT29 colon, above 100 µM; with LOX IMVI melanoma, 38.2 µM; with MDA-MB-435 it was above 100 µM; with MOLT-4 leukemia, 14.2 µM; in the assay with NCI-H226 lung it was above 100 µM. Further, the figures for the TGI in the assay with NCI-H23 lung, in the assay on OVCAR-5 ovarian and with SK-MEL-28 melanoma were 85.4 µM, above 100 µM and above 100 µM, respectively.

Take `COc1ccc(-c2[nH]nc(N)c2-c2cc(OC)c(OC)c(OC)c2)cc1`: the GI50 in the assay on HS 578T breast is 0.0352 µM; with HT29 colon it was 0.0343 µM; in the assay on LOX IMVI melanoma, 0.0756 µM; in the assay on MDA-MB-435, 0.0106 µM; in the assay with MOLT-4 leukemia, 0.0487 µM; in the assay with NCI-H226 lung, 0.512 µM. Further, the GI50 in the assay on NCI-H23 lung is 0.0422 µM; with OVCAR-5 ovarian it was 0.0659 µM. Besides, the TGI was above 59 µM in the assay on HS 578T breast; 18.2 µM in the assay on HT29 colon; above 100 µM in the assay on LOX IMVI melanoma; 0.0446 µM in the assay on MDA-MB-435; above 100 µM in the assay with NCI-H226 lung; above 32.1 µM with NCI-H23 lung. This compound also came in with a TGI with OVCAR-5 ovarian above 100 µM.

Regarding `NCCSC(c1ccccc1)(c1ccccc1)c1ccccc1`, the GI50 was 1.09 µM in the assay on HS 578T breast; 1.95 µM in the assay on HT29 colon; 1.42 µM in the assay on LOX IMVI melanoma; 0.242 µM in the assay with MDA-MB-435; 2.3 µM with MOLT-4 leukemia; 4.79 µM with NCI-H226 lung. For the same compound, the GI50 with NCI-H23 lung was 3.38 µM; in the assay on OVCAR-5 ovarian, 1.92 µM; with SK-MEL-28 melanoma, 1.64 µM. In addition, the TGI with HS 578T breast turned out to be 5.29 µM; in the assay on HT29 colon, 4.23 µM; in the assay on LOX IMVI melanoma, 2.9 µM; in the assay with MDA-MB-435, 0.55 µM; in the assay on MOLT-4 leukemia it was 7.1 µM; with NCI-H226 lung, 22.7 µM. For the same compound, the TGI was 13.6 µM in the assay on NCI-H23 lung, 6.95 µM with OVCAR-5 ovarian and 3.34 µM in the assay with SK-MEL-28 melanoma.

With `O=C(O)c1c2c(cc3c(=O)cc(-c4ccccc4)oc13)CCCC2`, the TGI in the assay with HT29 colon, with LOX IMVI melanoma, with MOLT-4 leukemia, in the assay with NCI-H23 lung, with OVCAR-5 ovarian and in the assay with SK-MEL-28 melanoma was above 100 µM throughout.

In the case of `COc1cc(CCNC(=O)OC(C)(C)C)c2c(c1OC)SSSSS2`, the GI50 with HS 578T breast is 3.79 µM; in the assay on HT29 colon, 1.86 µM; in the assay with LOX IMVI melanoma it was 2.79 µM; in the assay on MDA-MB-435, 2.28 µM; with MOLT-4 leukemia it was 5.46 µM; in the assay on NCI-H226 lung, 4.3 µM. In addition, the GI50 in the assay on NCI-H23 lung was 3.56 µM; with OVCAR-5 ovarian it was 3.14 µM; with SK-MEL-28 melanoma, 1.9 µM. For the same compound, the TGI was 32.6 µM with HS 578T breast; 4.02 µM in the assay on HT29 colon; 6.75 µM in the assay with LOX IMVI melanoma; 4.78 µM in the assay with MDA-MB-435; above 100 µM in the assay on MOLT-4 leukemia; 24.4 µM in the assay on NCI-H226 lung. The TGI was determined as 20.3 µM in the assay with NCI-H23 lung, 9.23 µM with OVCAR-5 ovarian and 3.68 µM with SK-MEL-28 melanoma.

With `Cc1ccc(C(=O)NCCN(C)C)c2nc3ccccc3cc12`, the TGI in the assay with HT29 colon was 11.3 µM; in the assay on LOX IMVI melanoma, 10.4 µM; in the assay with MOLT-4 leukemia it was above 100 µM; with NCI-H226 lung it was 3.85 µM; in the assay with OVCAR-5 ovarian, 8.71 µM; with RXF 393 renal, 3.29 µM. The compound further showed a TGI in the assay on SK-MEL-28 melanoma of 5.46 µM.

For `COc1cc(CCC(=O)NC[C@@H](O)c2ccccc2)ccc1O`, the GI50 in the assay with HT29 colon, with LOX IMVI melanoma, in the assay on MDA-MB-435, in the assay on MOLT-4 leukemia, in the assay with NCI-H226 lung and with NCI-H23 lung was above 100 µM in each case. Besides, the GI50 in the assay on OVCAR-5 ovarian and in the assay with RXF 393 renal was above 100 µM in each case. Further, the TGI in the assay with HT29 colon, with LOX IMVI melanoma, in the assay with MDA-MB-435, with MOLT-4 leukemia, in the assay with NCI-H226 lung and in the assay on NCI-H23 lung was above 100 µM in each case. Moreover, the TGI in the assay on OVCAR-5 ovarian and in the assay on RXF 393 renal was above 100 µM in each case.

For the compound `Cc1ccc(C2=Nc3ccccc3S(=O)C(c3ccc4c(c3)OCO4)C2)cc1` (stereo not drawn), the TGI with HT29 colon was 31.5 µM; in the assay on LOX IMVI melanoma, 29.8 µM; in the assay on MOLT-4 leukemia it was above 100 µM; with NCI-H226 lung, above 100 µM; with NCI-H23 lung it was 48.9 µM; with RXF 393 renal, 32.1 µM. This compound also returned a TGI in the assay on SK-MEL-28 melanoma of 89.9 µM.

Turning to `CC(C)=NNC(=S)NC12CC3CC(CC(C3)C1)C2`, the TGI in the assay with HT29 colon, in the assay on LOX IMVI melanoma, with MOLT-4 leukemia, in the assay on NCI-H226 lung, in the assay with NCI-H23 lung and in the assay on OVCAR-5 ovarian was above 100 µM each time. In addition, the TGI in the assay on RXF 393 renal and in the assay with SK-MEL-28 melanoma was above 100 µM in each case.

For `c1ccc2c(CNCCCCCCCCNCc3cccc4ccccc34)cccc2c1`, the TGI came to 3.35 µM in the assay on HT29 colon; 2.52 µM in the assay on LOX IMVI melanoma; 9.64 µM with MOLT-4 leukemia; 24.5 µM in the assay on NCI-H226 lung; 14.8 µM in the assay on NCI-H23 lung; 4.14 µM with OVCAR-5 ovarian. Further, the results for the TGI in the assay on RXF 393 renal and in the assay on SK-MEL-28 melanoma were 3.13 µM and 3.32 µM, respectively.

The record behind these values is PubChem BioAssay (NCI).
